Measurements as given in patent US10821115B2, “Compounds that inhibit Mcl-1 protein” (priority 2017, dated 2020).
Read-outs that look alike come from different tables or passages of the source.

Key:
[1] = tested on: human multiple myeloma cell line, OPM-2; experiment: Cell viability assay (OPM-2 10 FBS), CellTiter-Glo; type: cell-based
How it was run: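 3000 cells/well, RPMI 1640 + 10% FBS; serial compound dilutions, 16 h, 37 °C/5% CO2.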

[2] = target: recombinant human Mcl-1 (residues 171-327) / Bim interaction (Homo sapiens (Human), UniProt Q07820); experiment: biochemical; type: binding; details: read-out: Mcl-1 HTRF IC50
Sequence of recombinant human Mcl-1 (residues 171-327) / Bim interaction (Q07820 171-327): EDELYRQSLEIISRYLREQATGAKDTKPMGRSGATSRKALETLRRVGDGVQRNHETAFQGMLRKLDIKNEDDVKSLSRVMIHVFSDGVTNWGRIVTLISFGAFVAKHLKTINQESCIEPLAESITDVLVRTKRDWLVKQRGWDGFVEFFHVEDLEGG

[3] = read-out: OPM-2 10% FBS IC50 IP, OPM-2 cells, 10% FBS, 16 h, CellTiter-Glo
[4] = TR-FRET, Mcl-1(171-327) / biotin-Bim (51-76)
[5] = Homo sapiens, OPM-2, 16 h, read-out: OPM-2 10% FBS IC50 IP, OPM-2 cells, 10% FBS, 16 h, CellTiter-Glo

Row | SMILES | IC50 [1, 3] [nM] | IC50 [2, 4] [nM] | IC50 [1, 5] [nM] | IC50 [2] [nM]
1 | CO[C@H](C)[C@]1(OC)/C=C/C[C@H](C)[C@@H](C)S(=O)(=O)NC(=O)c2ccc3c(c2)N(C[C@@H]2CC[C@H]21)C[C@@]1(CCCc2cc(Cl)ccc21)CO3 [Example 100473, (1S,3′R,6′R,7′S,8′E,11′S,12′R)-6-chloro-7′-methoxy-7′-((1R)-1-methoxyethyl)-11′,12′-dimethyl-3,4-dihydro-2H,15′H-spiro[naphthalene-1,22′-[20]oxa[13]thia[1,14]diazatetracyclo [14.7.2.0~3,6~.0~19,24~]pentacosa[8,16,18,24]tetraen]-15′-one 13′,13′-dioxide] | 178 | 0.974 | – | –
2 | CO[C@H](C)[C@]1(OC)/C=C/C[C@H](C)[C@@H](C)S(=O)(=O)NC(=O)c2ccc3c(c2)N(C[C@@H]2CC[C@H]21)C[C@@]1(CCCc2cc(Cl)ccc21)CO3 [Example 100475, (1S,3′R,6′R,7′S,8′E,11′S,12′R)-6-chloro-7′-methoxy-7′-((1R)-1-methoxyethyl)-11′,12′-dimethyl-3,4-dihydro-2H,15′H-spiro[naphthalene-1,22′-[20]oxa[13]thia[1,14]diazatetracyclo [14.7.2.0~3,6~.0~19,24~]pentacosa[8,16,18,24]tetraen]-15′-one 13′,13′-dioxide] | 2710 | 1.36 | – | –
3 | C[C@@H]1[C@@H](C)C/C=C/[C@](C)(OCC2CCOCC2)[C@@H]2CC[C@H]2CN2C[C@@]3(CCCc4cc(Cl)ccc43)COc3ccc(cc32)C(=O)NS1(=O)=O [Example 100477, (1S,3′R,6′R,7′S,8′E,11′S,12′R)-6-chloro-7′,11′,12′-trimethyl-7′-(tetrahydro-2H-pyran-4-ylmethoxy)-3,4-dihydro-2H,15′H-spiro[naphthalene-1,22′-[20]oxa[13]thia[1,14]diazatetracyclo [14.7.2.0~3,6~.0~19,24~]pentacosa[8,16,18,24]tetraen]-15′-one 13′,13′-dioxide] | – | 0.313 | 159 | –
4 | CO[C@@]1([C@@H](C)O)CCC[C@H](C)[C@@H](C)S(=O)(=O)NC(=O)c2ccc3c(c2)N(C[C@@H]2CC[C@H]21)C[C@@]1(CCCc2cc(Cl)ccc21)CO3 [Example 100483, (1S,3′R,6′R,7′S,11′S,12′R)-6-chloro-7′-((1R)-1-hydroxyethyl)-7′-methoxy-11′,12′-dimethyl-3,4-dihydro-2H,15′H-spiro[naphthalene-1,22′-[20]oxa[13]thia[1,14]diazatetracyclo [14.7.2.0~3,6~.0~19,24~]pentacosa[16,18,24]trien]-15′-one 13′,13′-dioxide] | – | 1.66 | 1690 | –
5 | C[C@@H]1[C@@H](C)C/C=C/[C@](C)(OCCN2CC(F)(F)C2)[C@@H]2CC[C@H]2CN2C[C@@]3(CCCc4cc(Cl)ccc43)COc3ccc(cc32)C(=O)NS1(=O)=O [Example 100484, (1S,3′R,6′R,7′S,8′E,11′S,12′R)-6-chloro-7′-(2-(3,3-difluoro-1-azetidinyl)ethoxy)-7′,11′,12′-trimethyl-3,4-dihydro-2H,15′H-spiro[naphthalene-1,22′-[20]oxa[13]thia[1,14]diazatetracyclo [14.7.2.0~3,6~.0~19,24~]pentacosa[8,16,18,24]tetraen]-15′-one 13′,13′-dioxide] | – | 3.85 | 3370 | –
6 | COCCN1CCN(CCO[C@@]2(C)/C=C/C[C@H](C)[C@@H](C)S(=O)(=O)NC(=O)c3ccc4c(c3)N(C[C@@H]3CC[C@H]32)C[C@@]2(CCCc3cc(Cl)ccc32)CO4)CC1 [Example 100485, (1S,3′R,6′R,7′S,8′E,11′S,12′R)-6-chloro-7′-(2-(4-(2-methoxyethyl)-1-piperazinyl)ethoxy)-7′,11′,12′-trimethyl-3,4-dihydro-2H,15′H-spiro[naphthalene-1,22′-[20]oxa[13]thia[1,14]diazatetracyclo [14.7.2.0~3,6~.0~19,24~]pentacosa[8,16,18,24]tetraen]-15′-one 13′,13′-dioxide] | – | 0.192 | 272 | –
7 | CO[C@@]1(C#CCCN2CCN(S(C)(=O)=O)CC2)/C=C/C[C@H](C)[C@@H](C)S(=O)(=O)NC(=O)c2ccc3c(c2)N(C[C@@H]2CC[C@H]21)C[C@@]1(CCCc2cc(Cl)ccc21)CO3 [Example 100488, (1S,3′R,6′R,7′S,8′E,11′S,12′R)-6-chloro-7′-methoxy-11′,12′-dimethyl-7′-(4-(4-(methylsulfonyl)-1-piperazinyl)-1-butyn-1-yl)-3,4-dihydro-2H,15′H-spiro[naphthalene-1,22′-[20]oxa[13]thia[1,14]diazatetracyclo [14.7.2.0~3,6~.0~19,24~]pentacosa[8,16,18,24]tetraen]-15′-one 13′,13′-dioxide] | – | 0.389 | 346 | –
8 | CO[C@@]1(CC(=O)c2ccccn2)/C=C/C[C@H](C)[C@@H](C)S(=O)(=O)NC(=O)c2ccc3c(c2)N(C[C@@H]2CC[C@H]21)C[C@@]1(CCCc2cc(Cl)ccc21)CO3 [Example 100491, (1S,3′R,6′R,7′S,8′E,11′S,12′R)-6-chloro-7′-methoxy-11′,12′-dimethyl-7′-(2-oxo-2-(2-pyridinyl)ethyl)-3,4-dihydro-2H,15′H-spiro[naphthalene-1,22′-[20]oxa[13]thia[1,14]diazatetracyclo [14.7.2.0~3,6~.0~19,24~]pentacosa[8,16,18,24]tetraen]-15′-one 13′,13′-dioxide] | – | 0.208 | 308 | –
9 | CO[C@]1(CS(C)(=O)=O)/C=C/C[C@H](C)[C@@H](C)S(=O)(=O)NC(=O)c2ccc3c(c2)N(C[C@@H]2CC[C@H]21)C[C@@]1(CCCc2cc(Cl)ccc21)CO3 [Example 100492, (1S,3′R,6′R,7′R,8′E,11′S,12′R)-6-chloro-7′-methoxy-11′,12′-dimethyl-7′-((methylsulfonyl)methyl)-3,4-dihydro-2H,15′H-spiro[naphthalene-1,22′-[20]oxa[13]thia[1,14]diazatetracyclo [14.7.2.0~3,6~.0~19,24~]pentacosa[8,16,18,24]tetraen]-15′-one 13′,13′-dioxide] | – | 0.749 | 436 | –
10 | CC#C[C@@]1(O)/C=C/C[C@H](C)[C@@H](C)S(=O)(=O)NC(=O)c2ccc3c(c2)N(C[C@@H]2CC[C@H]21)C[C@@]1(CCCc2cc(Cl)ccc21)CO3 [Example 100498, (1S,3′R,6′R,7′R,8′E,11′S,12′R)-6-chloro-7′-hydroxy-11′,12′-dimethyl-7′-(1-propyn-1-yl)-3,4-dihydro-2H,15′H-spiro[naphthalene-1,22′-[20]oxa[13]thia[1,14]diazatetracyclo [14.7.2.0~3,6~.0~19,24~]pentacosa[8,16,18,24]tetraen]-15′-one 13′,13′-dioxide] | – | – | 1660 | 0.885
11 | CC#C[C@]1(O)/C=C/C[C@H](C)[C@@H](C)S(=O)(=O)NC(=O)c2ccc3c(c2)N(C[C@@H]2CC[C@H]21)C[C@@]1(CCCc2cc(Cl)ccc21)CO3 [Example 100499, (1S,3′R,6′R,7′S,8′E,11′S,12′R)-6-chloro-7′-hydroxy-11′,12′-dimethyl-7′-(1-propyn-1-yl)-3,4-dihydro-2H,15′H-spiro[naphthalene-1,22′-[20]oxa[13]thia[1,14]diazatetracyclo [14.7.2.0~3,6~.0~19,24~]pentacosa[8,16,18,24]tetraen]-15′-one 13′,13′-dioxide] | – | – | 1120 | 0.509
12 | CO[C@@]1(CC2=NCCO2)/C=C/C[C@H](C)[C@@H](C)S(=O)(=O)NC(=O)c2ccc3c(c2)N(C[C@@H]2CC[C@H]21)C[C@@]1(CCCc2cc(Cl)ccc21)CO3 [Example 100500, (1S,3′R,6′R,7′S,8′E,11′S,12′R)-6-chloro-7′-(4,5-dihydro-1,3-oxazol-2-ylmethyl)-7′-methoxy-11′,12′-dimethyl-3,4-dihydro-2H,15′H-spiro[naphthalene-1,22′-[20]oxa[13]thia[1,14]diazatetracyclo [14.7.2.0~3,6~.0~19,24~]pentacosa[8,16,18,24]tetraen]-15′-one 13′,13′-dioxide] | – | 0.049 | 71 | –
13 | CC#C[C@]1(OC)/C=C/C[C@H](C)[C@@H](C)S(=O)(=O)NC(=O)c2ccc3c(c2)N(C[C@@H]2CC[C@H]21)C[C@@]1(CCCc2cc(Cl)ccc21)CO3 [Example 100501, (1S,3′R,6′R,7′S,8′E,11′S,12′R)-6-chloro-7′-methoxy-11′,12′-dimethyl-7′-(1-propyn-1-yl)-3,4-dihydro-2H,15′H-spiro[naphthalene-1,22′-[20]oxa[13]thia[1,14]diazatetracyclo [14.7.2.0~3,6~.0~19,24~]pentacosa[8,16,18,24]tetraen]-15′-one 13′,13′-dioxide] | – | 0.09 | 518 | –
14 | C#C[C@]1(OC)/C=C/C[C@H](C)[C@@H](C)S(=O)(=O)NC(=O)c2ccc3c(c2)N(C[C@@H]2CC[C@H]21)C[C@@]1(CCCc2cc(Cl)ccc21)CO3 [Example 100502, (1S,3′R,6′R,7′S,8′E,11′S,12′R)-6-chloro-7′-ethynyl-7′-methoxy-11′,12′-dimethyl-3,4-dihydro-2H,15′H-spiro[naphthalene-1,22′-[20]oxa[13]thia[1,14]diazatetracyclo [14.7.2.0~3,6~.0~19,24~]pentacosa[8,16,18,24]tetraen]-15′-one 13′,13′-dioxide] | – | 0.29 | 393 | –
15 | C#C[C@@]1(OC)/C=C/C[C@H](C)[C@@H](C)S(=O)(=O)NC(=O)c2ccc3c(c2)N(C[C@@H]2CC[C@H]21)C[C@@]1(CCCc2cc(Cl)ccc21)CO3 [Example 100503, (1S,3′R,6′R,7′R,8′E,11′S,12′R)-6-chloro-7′-ethynyl-7′-methoxy-11′,12′-dimethyl-3,4-dihydro-2H,15′H-spiro[naphthalene-1,22′-[20]oxa[13]thia[1,14]diazatetracyclo [14.7.2.0~3,6~.0~19,24~]pentacosa[8,16,18,24]tetraen]-15′-one 13′,13′-dioxide] | – | 0.493 | 706 | –
